Laboratory results taken from article PMC4726752, “Coenzyme Q Biosynthesis: Evidence for a Substrate Access Channel in the FAD-Dependent Monooxygenase Coq6” (PLoS Computational Biology, 2016).

Legend:
Coq6p-MBP (Coq6p) = target: T1, Coq6p-MBP (Coq6p) (Saccharomyces cerevisiae, UniProt P53318); details: co-purified cofactor; tetrameric Coq6p-MBP, purified in Tris-HCl pH 7.5
T1 construct: gene COQ6

[1] = target: the molecule itself; experiment: SEC; gel filtration on Superdex 200 10/300 GL calibrated with standards of known molecular mass (Bio-Rad); purified Coq6p-MBP

T1 sequence (P53318 whole entry): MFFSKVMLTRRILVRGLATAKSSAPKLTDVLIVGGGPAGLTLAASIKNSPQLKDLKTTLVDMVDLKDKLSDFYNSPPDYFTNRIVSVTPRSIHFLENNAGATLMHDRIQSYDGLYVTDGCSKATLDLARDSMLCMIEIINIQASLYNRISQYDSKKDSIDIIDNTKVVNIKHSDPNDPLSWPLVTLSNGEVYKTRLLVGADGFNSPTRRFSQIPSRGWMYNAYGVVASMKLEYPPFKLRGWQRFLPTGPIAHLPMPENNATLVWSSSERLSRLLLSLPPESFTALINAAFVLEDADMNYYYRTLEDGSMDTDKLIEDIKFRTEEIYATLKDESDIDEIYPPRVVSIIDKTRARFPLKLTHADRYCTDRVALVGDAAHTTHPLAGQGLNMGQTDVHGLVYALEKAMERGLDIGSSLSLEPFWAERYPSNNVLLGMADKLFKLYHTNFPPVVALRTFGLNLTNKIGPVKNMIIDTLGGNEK

Row | FAD occupancy per monomer (Coq6p-MBP (Coq6p)) | Molecule | stoichiometry N [1]
1 | ~ 85% | Cc1cc2nc3c(=O)[nH]c(=O)nc-3n(C[C@H](O)[C@H](O)[C@H](O)COP(=O)(O)OP(=O)(O)OC[C@H]3O[C@@H](n4cnc5c(N)ncnc54)[C@H](O)[C@@H]3O)c2cc1C [FAD] | –
2 | – | Coq6p-MBP fusion protein (enzyme, S. cerevisiae, UniProt P53318 18-479, looked up, Coq6p, FAD-dependent monooxygenase of ubiquinone biosynthesis, S. cerevisiae, UniProt P53318; coq6 gene optimised for E. coli and cloned in pMAL-c2X between BamHI and EcoRI downstream of malE; Printed mass of the fusion is 96.3 kDa with an MBP tag of 45 kDa, which would fit the whole 479-residue Coq6p (my surmise); source: E. coli BL21 (DE3) co-transformed with pMALc2x-Coq6p and pGro7 …) ATAKSSAPKLTDVLIVGGGPAGLTLAASIKNSPQLKDLKTTLVDMVDLKDKLSDFYNSPPDYFTNRIVSVTPRSIHFLENNAGATLMHDRIQSYDGLYVTDGCSKATLDLARDSMLCMIEIINIQASLYNRISQYDSKKDSIDIIDNTKVVNIKHSDPNDPLSWPLVTLSNGEVYKTRLLVGADGFNSPTRRFSQIPSRGWMYNAYGVVASMKLEYPPFKLRGWQRFLPTGPIAHLPMPENNATLVWSSSERLSRLLLSLPPESFTALINAAFVLEDADMNYYYRTLEDGSMDTDKLIEDIKFRTEEIYATLKDESDIDEIYPPRVVSIIDKTRARFPLKLTHADRYCTDRVALVGDAAHTTHPLAGQGLNMGQTDVHGLVYALEKAMERGLDIGSSLSLEPFWAERYPSNNVLLGMADKLFKLYHTNFPPVVALRTFGLNLTNKIGPVKNMIIDTLGGNEK | 4
